The values that follow are results of earlier work, collected in patent publication US10638758B2, “Heterocycle-containing amino acid compound and use thereof” (AICHI STEEL CORPORATION, priority 2015, dated 2020).

Molecules are shown by their SMILES.

The test system of this series is rice. The following applies: alkaline conditions; Non-Patent Document 2.

With `O=C(O)[C@@H](NCC[C@H](O)C(=O)O)[C@@H](O)CN1CC[C@H]1C(=O)O` [mugineic acid], the “effect on the growth of graminaceous plants” value is listed as “dramatic effect”.
